From ChEMBL document CHEMBL3046206, “Synthesis of new 4-(2,5-dimethylpyrrol-1-yl)/4-pyrrol-1-yl benzoic acid hydrazide analogs and some derived oxadiazole, triazole and pyrrole ring systems: a novel class of potential antibacterial, antifungal and antitubercular agents” (Med Chem Res, 2013)
pIC50: −log10 of the molar value. Converted amounts (≈) assume the structure as drawn.

Experiments:
Bacillus subtilis = assay: Antibacterial activity against Bacillus subtilis after 18 hr by broth microdilution technique; type: functional
Enterococcus faecalis = assay: Antibacterial activity against Enterococcus faecalis after 18 hr by broth microdilution technique; type: functional
Candida tropicalis = assay: Antifungal activity against Candida tropicalis after 18 hr by broth microdilution technique; type: functional
A549 = assay: Cytotoxicity against Homo sapiens (human) A549 cells after 72 hr by MTT assay; type: cell-based; conditions: A549, 72 h
Pseudomonas aeruginosa = assay: Antibacterial activity against Pseudomonas aeruginosa after 18 hr by broth microdilution technique; type: functional
[1] = tested on: Mycobacterium tuberculosis; assay: Antimycobacterial activity against Mycobacterium tuberculosis H37Rv after 21 days by broth dilution method; type: functional; conditions: 504 h
Escherichia coli = assay: Antibacterial activity against Escherichia coli after 18 hr by broth microdilution technique; type: functional
Klebsiella pneumoniae = assay: Antibacterial activity against Klebsiella pneumoniae after 18 hr by broth microdilution technique; type: functional
Vero = assay: Cytotoxicity against Chlorocebus aethiops (African green monkey) Vero cells after 72 hr by MTT assay; type: cell-based; conditions: Chlorocebus sabaeus
Saccharomyces cerevisiae = assay: Antifungal activity against Saccharomyces cerevisiae after 18 hr by broth microdilution technique; type: functional
Staphylococcus aureus = assay: Antibacterial activity against Staphylococcus aureus after 18 hr by broth microdilution technique; type: functional
Aspergillus niger = assay: Antifungal activity against Aspergillus niger after 18 hr by broth microdilution technique; type: functional

Structure (SMILES) | MIC (Bacillus subtilis) | MIC (Enterococcus faecalis) | MIC (Candida tropicalis) | pIC50 (A549) | MIC (Pseudomonas aeruginosa) | MIC [1] | MIC (Escherichia coli) | MIC (Klebsiella pneumoniae) | pIC50 (Vero) | MIC (Saccharomyces cerevisiae) | MIC (Staphylococcus aureus) | MIC (Aspergillus niger)
c1ccc(-c2nnc(-c3ccc(-n4cccc4)cc3)o2)cc1 | 8 µg/mL (≈ 27.8 µM) | 31.2 µg/mL (≈ 109 µM) | 31.2 µg/mL (≈ 109 µM) | 3.59 | 8 µg/mL (≈ 27.8 µM) | 8 µg/mL (≈ 27.8 µM) | 8 µg/mL (≈ 27.8 µM) | > 500 µg/mL | 3.60 | 31.2 µg/mL (≈ 109 µM) | 31.2 µg/mL (≈ 109 µM) | 31.2 µg/mL (≈ 109 µM)
O=C(NNC(=O)c1cccc([N+](=O)[O-])c1)c1ccc(-n2cccc2)cc1 | 16 µg/mL (≈ 45.7 µM) | 62.5 µg/mL (≈ 178 µM) | 31.2 µg/mL (≈ 89.2 µM) | 3.69 | 16 µg/mL (≈ 45.7 µM) | 8 µg/mL (≈ 22.8 µM) | 16 µg/mL (≈ 45.7 µM) | > 500 µg/mL | 3.71 | 31.2 µg/mL (≈ 89.2 µM) | 62.5 µg/mL (≈ 178 µM) | 31.2 µg/mL (≈ 89.2 µM)
CC(=O)N1N=C(c2ccc(-n3c(C)ccc3C)cc2)OC1c1ccccc1Cl (stereo not given) | 8 µg/mL (≈ 20.3 µM) | 31.2 µg/mL (≈ 79.3 µM) | 8 µg/mL (≈ 20.3 µM) | 3.69 | 500 µg/mL (≈ 1270 µM) | 8 µg/mL (≈ 20.3 µM) | 500 µg/mL (≈ 1270 µM) | 31.2 µg/mL (≈ 79.3 µM) | 3.70 | 31.2 µg/mL (≈ 79.3 µM) | 16 µg/mL (≈ 40.6 µM) | 16 µg/mL (≈ 40.6 µM)
CC(=O)N1N=C(c2ccc(-n3c(C)ccc3C)cc2)OC1c1ccc(N(C)C)cc1 (stereo not given) | 16 µg/mL (≈ 39.8 µM) | 31.2 µg/mL (≈ 77.6 µM) | 31.2 µg/mL (≈ 77.6 µM) | 3.73 | 500 µg/mL (≈ 1240 µM) | 16 µg/mL (≈ 39.8 µM) | 500 µg/mL (≈ 1240 µM) | 31.2 µg/mL (≈ 77.6 µM) | 3.76 | 31.2 µg/mL (≈ 77.6 µM) | 31.2 µg/mL (≈ 77.6 µM) | 31.2 µg/mL (≈ 77.6 µM)
O=[N+]([O-])c1ccc(-c2nnc(-c3ccc(-n4cccc4)cc3)o2)cc1 | 4 µg/mL (≈ 12 µM) | 16 µg/mL (≈ 48.1 µM) | 31.2 µg/mL (≈ 94 µM) | 3.59 | 4 µg/mL (≈ 12 µM) | 2 µg/mL (≈ 6.02 µM) | 4 µg/mL (≈ 12 µM) | > 500 µg/mL | 3.59 | 31.2 µg/mL (≈ 94 µM) | 31.2 µg/mL (≈ 94 µM) | 31.2 µg/mL (≈ 94 µM)
CC(=O)N1N=C(c2ccc(-n3c(C)ccc3C)cc2)OC1c1ccc(O)cc1 (stereo not given) | 16 µg/mL (≈ 42.6 µM) | 31.2 µg/mL (≈ 83.2 µM) | 8 µg/mL (≈ 21.3 µM) | 3.72 | 62.5 µg/mL (≈ 166 µM) | 16 µg/mL (≈ 42.6 µM) | 62.5 µg/mL (≈ 166 µM) | 31.2 µg/mL (≈ 83.2 µM) | 3.73 | 31.2 µg/mL (≈ 83.2 µM) | 31.2 µg/mL (≈ 83.2 µM) | 8 µg/mL (≈ 21.3 µM)
O=C(NNC(=O)c1ccccc1[N+](=O)[O-])c1ccc(-n2cccc2)cc1 | 16 µg/mL (≈ 45.7 µM) | 31.2 µg/mL (≈ 89.2 µM) | 31.2 µg/mL (≈ 89.2 µM) | 3.69 | 16 µg/mL (≈ 45.7 µM) | 8 µg/mL (≈ 22.8 µM) | 31.2 µg/mL (≈ 89.2 µM) | > 500 µg/mL | 3.74 | 31.2 µg/mL (≈ 89.2 µM) | 62.5 µg/mL (≈ 178 µM) | 31.2 µg/mL (≈ 89.2 µM)
O=C(NNC(=O)c1ccc(-n2cccc2)cc1)c1ccc(Br)cc1 | 16 µg/mL (≈ 41.6 µM) | 31.2 µg/mL (≈ 81.3 µM) | 8 µg/mL (≈ 20.8 µM) | 3.70 | 16 µg/mL (≈ 41.6 µM) | 8 µg/mL (≈ 20.8 µM) | 16 µg/mL (≈ 41.6 µM) | > 500 µg/mL | 3.73 | 31.2 µg/mL (≈ 81.3 µM) | 62.5 µg/mL (≈ 163 µM) | 16 µg/mL (≈ 41.6 µM)
O=C(NNC(=O)c1ccc(-n2cccc2)cc1)c1ccc(Cl)cc1 | 16 µg/mL (≈ 47.1 µM) | 31.2 µg/mL (≈ 92 µM) | 8 µg/mL (≈ 23.5 µM) | 3.73 | 16 µg/mL (≈ 47.1 µM) | 8 µg/mL (≈ 23.5 µM) | 16 µg/mL (≈ 47.1 µM) | > 500 µg/mL | 3.75 | 31.2 µg/mL (≈ 92 µM) | 62.5 µg/mL (≈ 184 µM) | 31.2 µg/mL (≈ 92 µM)
Clc1ccc(-c2nnc(-c3ccc(-n4cccc4)cc3)o2)cc1 | 4 µg/mL (≈ 12.4 µM) | 16 µg/mL (≈ 49.7 µM) | 4 µg/mL (≈ 12.4 µM) | 3.59 | 4 µg/mL (≈ 12.4 µM) | 2 µg/mL (≈ 6.22 µM) | 4 µg/mL (≈ 12.4 µM) | > 500 µg/mL | 3.60 | 8 µg/mL (≈ 24.9 µM) | 31.2 µg/mL (≈ 97.1 µM) | 16 µg/mL (≈ 49.7 µM)
Cc1ccc(C)n1-c1ccc(-c2n[nH]c(=S)n2N)cc1 | 31.2 µg/mL (≈ 110 µM) | 16 µg/mL (≈ 56.1 µM) | 2 µg/mL (≈ 7.01 µM) | 3.77 | 500 µg/mL (≈ 1750 µM) | 4 µg/mL (≈ 14 µM) | 500 µg/mL (≈ 1750 µM) | 500 µg/mL (≈ 1750 µM) | 3.80 | 4 µg/mL (≈ 14 µM) | 16 µg/mL (≈ 56.1 µM) | 4 µg/mL (≈ 14 µM)
CC(=O)N1N=C(c2ccc(-n3c(C)ccc3C)cc2)OC1c1ccccc1[N+](=O)[O-] (stereo not given) | 16 µg/mL (≈ 39.6 µM) | 31.2 µg/mL (≈ 77.3 µM) | 8 µg/mL (≈ 19.8 µM) | 3.74 | 500 µg/mL (≈ 1240 µM) | 31.2 µg/mL (≈ 77.3 µM) | 500 µg/mL (≈ 1240 µM) | 500 µg/mL (≈ 1240 µM) | 3.76 | 31.2 µg/mL (≈ 77.3 µM) | 31.2 µg/mL (≈ 77.3 µM) | 8 µg/mL (≈ 19.8 µM)
CC(=O)NNC(=O)c1ccc(-n2c(C)ccc2C)cc1 | 16 µg/mL (≈ 59 µM) | 31.2 µg/mL (≈ 115 µM) | 62.5 µg/mL (≈ 230 µM) | 3.74 | 500 µg/mL (≈ 1840 µM) | 4 µg/mL (≈ 14.7 µM) | 500 µg/mL (≈ 1840 µM) | 500 µg/mL (≈ 1840 µM) | 3.76 | 62.5 µg/mL (≈ 230 µM) | 31.2 µg/mL (≈ 115 µM) | 62.5 µg/mL (≈ 230 µM)
O=[N+]([O-])c1cccc(-c2nnc(-c3ccc(-n4cccc4)cc3)o2)c1 | 8 µg/mL (≈ 24.1 µM) | 31.2 µg/mL (≈ 94 µM) | 31.2 µg/mL (≈ 94 µM) | 3.59 | 8 µg/mL (≈ 24.1 µM) | 8 µg/mL (≈ 24.1 µM) | 8 µg/mL (≈ 24.1 µM) | > 500 µg/mL | 3.60 | 31.2 µg/mL (≈ 94 µM) | 31.2 µg/mL (≈ 94 µM) | 31.2 µg/mL (≈ 94 µM)
Cc1ccc(C)n1NC(=O)c1ccc(-n2c(C)ccc2C)cc1 | 16 µg/mL (≈ 52 µM) | 16 µg/mL (≈ 52 µM) | 4 µg/mL (≈ 13 µM) | 3.65 | 500 µg/mL (≈ 1630 µM) | 2 µg/mL (≈ 6.51 µM) | 500 µg/mL (≈ 1630 µM) | 62.5 µg/mL (≈ 203 µM) | 3.64 | 16 µg/mL (≈ 52 µM) | 2 µg/mL (≈ 6.51 µM) | 16 µg/mL (≈ 52 µM)
